≈ marks a conversion by molar mass, not a printed value. Where two headings read alike, the source gives them in different places.
How the values were obtained:
MRSA MW2 (USA400) = assay: In vitro susceptibility, broth microdilution (MIC); type: cell-based, methicillin resistant S. aureus; conditions: Staphylococcus aureus; MRSA MW2 (USA400); read-out: Antimicrobial activity (MIC) MSRA USA400
How it was run: (§1)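 MIC determined by CLSI 2-fold broth microdilution in cation-adjusted Mueller–Hinton broth at ~2.5×10^5 CFU/ml, final compound 0.031–64 μg/ml, 18–24 h at 37 °C. MIC is the lowest concentration giving complete growth inhibition by background-corrected OD600 versus compound-free wells; duplicate or triplicate wells, replicated at least twice.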

S. aureus (ATCC29213) = assay: In vitro susceptibility, broth microdilution (MIC); type: cell-based; conditions: Staphylococcus aureus; S. aureus ATCC29213; 18-24 h, 37 C; read-out: Antimicrobial activity (MIC) S. aureus ATCC29213
How it was run: (§2)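 CLSI 2-fold serial broth microdilution; K. pneumoniae C238 grown in L-broth, S. aureus ATCC 29213 in Mueller Hinton broth, plates incubated 18–24 h at 37 °C. MIC taken as lowest concentration giving complete growth inhibition by OD600 versus compound-free wells, background-subtracted.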

K. pneumoniae (C238) = assay: In vitro susceptibility, broth microdilution (MIC); type: cell-based; conditions: Klebsiella pneumoniae, read-out: Antimicrobial activity (MIC) K. pneumoniae
How it was run: as §2

VRE#2 (2010A) = assay: In vitro susceptibility, broth microdilution (MIC); type: cell-based, vancomycin resistant Enterococci; conditions: VRE#2 (2010A); read-out: Antimicrobial activity (MIC) VRE#2
How it was run: as §1

MRSA (ATCC BAA-1762) = assay: In vitro susceptibility, broth microdilution (MIC); type: cell-based, methicillin resistant S. aureus; conditions: Staphylococcus aureus; MRSA ATCC BAA-1762; read-out: Antimicrobial activity (MIC) MRSA ATCC BAA1762
How it was run: as §1

MRSA Pyk = target: T1, MRSA Pyk (Staphylococcus aureus, UniProt Q6GG09); assay: MRSA pyruvate kinase (PK) activity, continuous LDH-coupled assay; type: biochemical, methicillin resistant S. aureus (MRSA252)
T1 construct: made in house; host or cells: E. coli BL-21 (DE3)
How it was run: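 His-tagged MRSA PK (strain Sanger 252) and human PK isoforms expressed in E. coli BL-21 (DE3) and Ni-NTA purified, used at 15 nM in an LDH-coupled assay following NADH oxidation at 340 nm, 30° C, up to 5 min, ≤1% DMSO. IC50 from four-parameter variable-slope fit; Ki with PEP 2-20 mM, ADP fixed 2 mM, inhibitor 0-400 nM.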

[1] = system: A. baumannii (ATCC 17978); assay: In vitro susceptibility, broth microdilution (MIC); type: cell-based; conditions: Acinetobacter baumannii, ATCC17978; A. baumannii ATCC 17978 (values marked *); read-out: Antimicrobial activity (MIC) A. baumannii
How it was run: as §1

[2] = system: A. baumannii (ATCC 19606); assay: In vitro susceptibility, broth microdilution (MIC); type: cell-based; conditions: Acinetobacter baumannii, ATCC19606; A. baumannii ATCC 19606 (values without asterisk); read-out: Antimicrobial activity (MIC) A. baumannii
How it was run: as §1

T1 sequence (Q6GG09 whole entry): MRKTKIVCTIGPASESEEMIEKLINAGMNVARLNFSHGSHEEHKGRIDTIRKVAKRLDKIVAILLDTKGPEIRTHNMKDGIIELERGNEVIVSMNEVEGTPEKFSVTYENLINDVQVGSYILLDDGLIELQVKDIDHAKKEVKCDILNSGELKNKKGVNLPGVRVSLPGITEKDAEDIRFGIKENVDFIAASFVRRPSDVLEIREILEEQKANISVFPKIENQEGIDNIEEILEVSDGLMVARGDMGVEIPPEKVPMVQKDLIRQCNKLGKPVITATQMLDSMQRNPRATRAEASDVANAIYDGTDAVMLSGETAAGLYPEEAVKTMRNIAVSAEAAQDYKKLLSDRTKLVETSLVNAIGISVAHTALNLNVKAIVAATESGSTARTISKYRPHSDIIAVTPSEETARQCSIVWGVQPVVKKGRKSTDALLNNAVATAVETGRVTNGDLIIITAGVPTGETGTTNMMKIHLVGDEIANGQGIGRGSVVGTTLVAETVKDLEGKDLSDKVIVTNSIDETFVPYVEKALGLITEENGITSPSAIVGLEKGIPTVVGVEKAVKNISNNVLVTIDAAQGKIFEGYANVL

O=S(=O)(Nc1nc2cc(Br)ccc2s1)c1ccc(Cl)cc1 [Compound 101, N-(5-bromobenzo[d]thiazol-2-yl)-4-chlorobenzenesulfonamide]
MIC (MRSA MW2 (USA400)): > 64 µg/mL
MIC (S. aureus (ATCC29213)): 8 µg/mL (≈ 19.8 µM)
MIC (K. pneumoniae (C238); K. pneumoniae (C238)): 32 µg/mL (≈ 79.3 µM)

Clc1ccc2[nH]c(-c3cc4ccc(Br)cc4[nH]3)nc2n1 [Compound 208, 2-(6-Bromo-1H-indol-2-yl)-5-chloro-1H-imidazo[4,5-b]pyridine]
MIC (VRE#2 (2010A)): 16 µg/mL (≈ 46 µM)
MIC (MRSA (ATCC BAA-1762)): 8 µg/mL (≈ 23 µM)
IC50 (MRSA Pyk): > 1000 nM
MIC [1]: > 64 µg/mL
MIC (S. aureus (ATCC29213)): 8 µg/mL (≈ 23 µM)

CN(C)CCNC(=O)c1c(NC(=O)c2ccc(Cl)cc2)[nH]c2cc(Br)ccc12 [Compound 84, 6-Bromo-2-(4-chlorobenzamido)-N-(2-(dimethylamino)ethyl)-1H-indole-3-carboxamide]
MIC (MRSA MW2 (USA400)): > 64 µg/mL
MIC (S. aureus (ATCC29213)): 64 µg/mL (≈ 138 µM)
MIC (K. pneumoniae (C238); K. pneumoniae (C238)): 16 µg/mL (≈ 34.5 µM)

COC(=O)C(=O)c1c(/C=C/c2ccc(Cl)cc2)[nH]c2cc(Br)ccc12 [Compound 86, (E)-Methyl 2-(6-bromo-2-(4-chlorostyryl)-1H-indol-3-yl)-2-oxoacetate]
MIC (VRE#2 (2010A)): 64 µg/mL (≈ 153 µM)
MIC (MRSA MW2 (USA400)): 64 µg/mL (≈ 153 µM)
IC50 (MRSA Pyk): < 100 nM
MIC (S. aureus (ATCC29213)): 64 µg/mL (≈ 153 µM)
MIC (K. pneumoniae (C238); K. pneumoniae (C238)): > 64 µg/mL

CN1CCN(CCCCNC(=O)c2c(/C=C/c3ccc(Cl)cc3)[nH]c3cc(Br)ccc23)CC1 [Compound 44, (E)-6-Bromo-2-(4-chlorostyryl)-N-(4-(4-methylpiperazin-1-yl)butyl)-1 H-indole-3-carboxamide]
MIC (VRE#2 (2010A)): 16 µg/mL (≈ 30.2 µM)
MIC (MRSA MW2 (USA400)): 32 µg/mL (≈ 60.4 µM)
IC50 (MRSA Pyk): 100 to 1000 nM
MIC (S. aureus (ATCC29213)): 32 µg/mL (≈ 60.4 µM)
MIC (K. pneumoniae (C238); K. pneumoniae (C238)): 32 µg/mL (≈ 60.4 µM)

CN(C)CCOc1cc(/C=C/c2cc3ccc(Br)cc3[nH]2)ccc1Cl [Compound 12, (E)-2-(5-(2-(6-bromo-1H-indol-2-yl)vinyl)-2-chlorophenoxy)-N,N-dimethylethanamine]
MIC (MRSA MW2 (USA400)): 4 µg/mL (≈ 9.53 µM)
IC50 (MRSA Pyk): 100 to 1000 nM
MIC [2]: 16 µg/mL (≈ 38.1 µM)
MIC (S. aureus (ATCC29213)): 4 µg/mL (≈ 9.53 µM)
MIC (K. pneumoniae (C238); K. pneumoniae (C238)): 4 µg/mL (≈ 9.53 µM)

O=C(O)CCCC(=O)c1c(-c2cc3cc(Cl)ccc3[nH]2)[nH]c2cc(-c3cc4cc(Cl)ccc4[nH]3)ccc12 [Compound 108, 5-(5,5″-dichloro-1H,1′H,1″H-[2,2′:6′,2″-terindol]-3′-yl)-5-oxopentanoic Acid]
MIC (VRE#2 (2010A)): 2 µg/mL (≈ 3.77 µM)
MIC (MRSA MW2 (USA400)): 2 µg/mL (≈ 3.77 µM)
IC50 (MRSA Pyk): > 1000 nM
MIC (S. aureus (ATCC29213)): 1 µg/mL (≈ 1.89 µM)
MIC (K. pneumoniae (C238); K. pneumoniae (C238)): 2 µg/mL (≈ 3.77 µM)

CN(C)CCc1c(-c2cc3cc(Cl)ccc3[nH]2)[nH]c2cc(Br)ccc12 [Compound 77, 2-(6-Bromo-5′-chloro-1H,1′H-[2,2′-biindol]-3-yl)-N,N-dimethylethan-1-amine]
MIC (MRSA MW2 (USA400)): 4 µg/mL (≈ 9.6 µM)
IC50 (MRSA Pyk): < 100 nM
MIC (S. aureus (ATCC29213)): 4 µg/mL (≈ 9.6 µM)
MIC (K. pneumoniae (C238)): 4 µg/mL (≈ 9.6 µM)

O=C(COc1cc2[nH]c(-c3cc4ccc(Br)cc4[nH]3)cc2cc1Cl)NCCC[n+]1ccccc1 [Compound 190, 1-(3-(2-((6′-Bromo-5-chloro-1H,1′H-[2,2′-biindol]-6-yl)oxy)acetamido)propyl)pyridin-1-ium Acetate]
MIC (VRE#2 (2010A)): 16 µg/mL
MIC (MRSA (ATCC BAA-1762)): 8 µg/mL
IC50 (MRSA Pyk): < 100 nM
MIC [1]: > 64 µg/mL
MIC (S. aureus (ATCC29213)): 8 µg/mL

Clc1cc2nc(-c3cc4ccc(Br)cc4[nH]3)[nH]c2cc1Cl [Compound 207, 2-(6-Bromo-1H-indol-2-yl)-5,6-dichloro-1H-benzo[d]imidazole]
MIC (VRE#2 (2010A)): 32 µg/mL (≈ 84 µM)
MIC (MRSA MW2 (USA400)): 1 µg/mL (≈ 2.62 µM)
IC50 (MRSA Pyk): < 100 nM
MIC [2]: > 64 µg/mL
MIC (S. aureus (ATCC29213)): 0.5 µg/mL (≈ 1.31 µM)
MIC (K. pneumoniae (C238); K. pneumoniae (C238)): 16 µg/mL (≈ 42 µM)

Oc1cc(/C=C/c2cc3ccc(Br)cc3[nH]2)ccc1Cl [Compound 11, (E)-5-(2-(6-bromo-1H-indol-2-yl)vinyl)-2-chlorophenol]
MIC (MRSA MW2 (USA400)): 2 µg/mL (≈ 5.74 µM)
MIC [1]: > 64 µg/mL
MIC (S. aureus (ATCC29213)): 2 µg/mL (≈ 5.74 µM)
MIC (K. pneumoniae (C238); K. pneumoniae (C238)): 4 µg/mL (≈ 11.5 µM)

CNC(=O)C(=O)c1c(/C=C/c2ccc(Cl)cc2)[nH]c2cc(Br)ccc12 [Compound 87, (E)-2-(6-bromo-2-(4-chlorostyryl)-1H-indol-3-yl)-N-methyl-2-oxoacetamide]
MIC (VRE#2 (2010A)): > 64 µg/mL
MIC (MRSA MW2 (USA400)): > 64 µg/mL
IC50 (MRSA Pyk): < 100 nM
MIC (S. aureus (ATCC29213)): > 64 µg/mL
MIC (K. pneumoniae (C238); K. pneumoniae (C238)): > 64 µg/mL

From US20180312493A1, “Antibiotic Compounds, Pharmaceutical Formulations Thereof And Methods And Uses Therefor” (Simon Fraser University, priority 2015, published 2018)
